From patent US20090131417A1, “SUBSTITUTED PYRIDYL AMIDE COMPOUNDS AS MODULATORS OF THE HISTAMINE H3 RECEPTOR” (priority 2007, published 2009) come the findings set out here.

Assay [1] deals with T1, cloned human H3 receptors, stably expressed in SK-N-MC cells (Homo sapiens, UniProt Q9Y5N1).
T1 construct: expressed in transfected cells; host or cells: SK-N-MC cells
Description: H3 Receptor Binding (Human). As to conditions: average of results obtained. Here is the method:
Binding of compounds to the cloned human H3 receptors, stably expressed in SK-N-MC cells, was performed as described by Barbier, A. J. et al. (Br. J. Pharmacol. 2004, 143(5), 649-661). Data for compounds tested in this assay are presented in Table 1, as an average of results obtained.

The next assay addresses T2, human H3 receptor (Homo sapiens, UniProt Q9Y5N1).
T2 construct: expressed in transfected cells; host or cells: SK-N-MC cells
Description: Cyclic AMP Accumulation (human H3). Type of assay: cell-based. As to conditions: SK-N-MC cells expressing reporter construct and human H3 receptor, Example 1 tested as TFA salt; for Kb: read-out: Human pA2 (converted). As to the method: (§1) Sublines of SK-N-MC cells were created that expressed a reporter construct and either the human or rat H3 receptor. The pA2 values were obtained as described by Barbier et al. (2004). Example 1 was tested as the corresponding TFA salt.

Another assay deals with T3, rat H3 receptor (Rattus norvegicus, UniProt Q9QYN8).
T3 construct: expressed in transfected cells; host or cells: SK-N-MC cells (subline with reporter construct)
Description: Cyclic AMP Accumulation (rat H3). Format: cell-based. As to conditions: SK-N-MC cells expressing reporter construct and rat H3 receptor; Example 1 tested as TFA salt; read-out: Rat pA2 (converted). Here is the method: as §1

The target in assay [2] is T4, rat H3 receptor (rat brain membranes) (Rattus norvegicus, UniProt Q9QYN8).
T4 construct: A rat brain without cerebellum (Zivic Laboratories Inc., Pittsburgh, Pa.) was homogenized; tissue Zivic Laboratories Inc; host or cells: rat brain without cerebellum, membranes
Description: H3 Receptor Binding (Rat). As to conditions: rat brain without cerebellum membranes; 0.8 nM N-[3H]-alpha-methylhistamine; IC50 converted to Ki (Kd 0.8 nM); tested as the corresponding TFA salt. Here is the method:
A rat brain without cerebellum (Zivic Laboratories Inc., Pittsburgh, Pa.) was homogenized in 50 mM Tris-HCl/5 mM EDTA and centrifuged at 1,000 rpm for 5 min. The supernatant was removed and recentrifuged at 15,000 rpm for 30 min. Pellets were rehomogenized in 50 mM Tris/5 mM EDTA (pH 7.4). Membranes were incubated with 0.8 nM N—[^3H]-α-methylhistamine plus/minus test compounds for 60 min at 25° C. and harvested by rapid filtration over GF/C glass fiber filters (pretreated with 0.3% polyethylenimine) followed by four washes with buffer. Nonspecific binding was defined in the presence of 100 μM histamine. Inhibitory concentration (responsible for 50% inhibition of maximal effect, IC50) values were determined by a single site curve-fitting program (GraphPad, San Diego, Calif.) and converted to Ki values based on a N—[^3H]-α-methylhistamine dissociation constant (Kd) of 0.8 nM. The following results were obtained: Example 2, 28 nM; Example 6, 50 nM (tested as the corresponding TFA salt).

T2 sequence (Q9Y5N1 whole entry): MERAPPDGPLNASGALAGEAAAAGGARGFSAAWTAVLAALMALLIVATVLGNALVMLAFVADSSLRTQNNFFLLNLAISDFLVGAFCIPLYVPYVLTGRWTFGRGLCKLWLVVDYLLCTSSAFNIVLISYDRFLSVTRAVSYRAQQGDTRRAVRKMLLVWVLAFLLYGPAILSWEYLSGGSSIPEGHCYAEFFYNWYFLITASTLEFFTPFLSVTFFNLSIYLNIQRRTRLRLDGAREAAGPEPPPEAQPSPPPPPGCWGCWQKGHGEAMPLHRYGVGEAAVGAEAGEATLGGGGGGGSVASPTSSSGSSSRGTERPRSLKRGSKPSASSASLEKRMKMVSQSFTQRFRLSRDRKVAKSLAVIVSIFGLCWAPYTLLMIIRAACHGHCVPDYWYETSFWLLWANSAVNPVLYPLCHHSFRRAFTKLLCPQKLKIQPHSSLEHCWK
T1 sequence (Q9Y5N1 whole entry): as above
T3 sequence (Q9QYN8 whole entry): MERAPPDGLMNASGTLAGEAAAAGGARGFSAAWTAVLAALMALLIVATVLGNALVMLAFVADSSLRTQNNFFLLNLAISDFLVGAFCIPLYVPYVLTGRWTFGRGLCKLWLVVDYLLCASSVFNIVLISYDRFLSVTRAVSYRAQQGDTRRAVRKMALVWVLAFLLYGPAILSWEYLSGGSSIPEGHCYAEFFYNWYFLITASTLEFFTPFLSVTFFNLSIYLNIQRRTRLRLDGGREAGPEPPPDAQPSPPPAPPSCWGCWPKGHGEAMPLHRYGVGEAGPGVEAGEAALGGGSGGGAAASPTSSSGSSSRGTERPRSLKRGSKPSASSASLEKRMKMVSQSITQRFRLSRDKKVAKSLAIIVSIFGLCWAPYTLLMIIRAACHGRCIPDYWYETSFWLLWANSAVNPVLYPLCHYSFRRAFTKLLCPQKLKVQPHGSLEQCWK
T4 sequence (Q9QYN8 whole entry): as above

What is called Ki is a measure of affinity in units of concentration, obtained from inhibition or displacement. As to `O=C(c1cncc(Oc2ccc(F)cc2)c1)N1CCCN(C2CCC2)CC1` [Example 1, (4-Cyclobutyl-[1,4]diazepan-1-yl)-[5-(4-fluoro-phenoxy)-pyridin-3-yl]-methanone], in assay [1], the inhibition constant (Ki) was 3.6 nM. Further, the “Human pA2” value on human H3 receptor amounted to 8.87. The Kb at rat H3 receptor is 28.8 nM.
Consider `O=C(c1cncc(Oc2cccc(Cl)c2)c1)N1CCCN(C2CCC2)CC1` [Example 2, [5-(3-Chloro-phenoxy)-pyridin-3-yl]-(4-cyclobutyl-[1,4]diazepan-1-yl)-methanone], for which the Ki in assay [1] came out at 3.2 nM; in assay [2], 28 nM.
Regarding `N#Cc1cccc(Oc2cncc(C(=O)N3CCCN(C4CCC4)CC3)c2)c1` [Example 3, 3-[5-(4-Cyclobutyl-[1,4]diazepane-1-carbonyl)-pyridin-3-yloxy]-benzonitrile], the affinity in assay [1], expressed as Ki, was 1.9 nM. Also, the figures for the Kb at human H3 receptor and on rat H3 receptor were 0.955 nM and 6.17 nM, respectively.
In turn, `O=C(c1cncc(Oc2ccccc2)c1)N1CCCN(C2CCC2)CC1` [Example 4, (4-Cyclobutyl-[1,4]diazepan-1-yl)-(5-phenoxy-pyridin-3-yl)-methanone] returned a Ki in assay [1] of 3.4 nM.
With `COc1cccc(Oc2cncc(C(=O)N3CCCN(C4CCC4)CC3)c2)c1` [Example 5, (4-Cyclobutyl-[1,4]diazepan-1-yl)-[5-(3-methoxy-phenoxy)-pyridin-3-yl]-methanone], the Ki in assay [1] turned out to be 3.4 nM.
As for `O=C(c1cncc(Oc2cccc(F)c2)c1)N1CCCN(C2CCC2)CC1` [Example 6, (4-Cyclobutyl-[1,4]diazepan-1-yl)-[5-(3-fluoro-phenoxy)-pyridin-3-yl]-methanone], the Ki in assay [1] amounted to 1 nM; in assay [2] it was 50 nM. Besides, the figures for the Kb at human H3 receptor and at rat H3 receptor were 2.4 nM and 20.4 nM, respectively.
The compound `CC(C)Oc1cncc(C(=O)N2CCCN(C3CCC3)CC2)c1` [Example 7, (4-Cyclobutyl-[1,4]diazepan-1-yl)-(5-isopropoxy-pyridin-3-yl)-methanone] returned a Ki in assay [1] of 11 nM.
The compound `O=C(c1cncc(Sc2ccc(F)cc2)c1)N1CCCN(C2CCC2)CC1` [Example 8, (4-Cyclobutyl-[1,4]diazepan-1-yl)-[5-(4-fluoro-phenylsulfanyl)-pyridin-3-yl]-methanone] registered an inhibition constant Ki in assay [1] of 2.9 nM. Besides, the Kb was 3.98 nM on human H3 receptor and 43.7 nM at rat H3 receptor.
`CC(C)Sc1cncc(C(=O)N2CCCN(C3CCC3)CC2)c1` [Example 9, (4-Cyclobutyl-[1,4]diazepan-1-yl)-(5-isopropylsulfanyl-pyridin-3-yl)-methanone] returned a Ki in assay [1] of 3 nM.
Regarding `O=C(c1cncc(Sc2ccccn2)c1)N1CCCN(C2CCC2)CC1` [Example 10, (4-Cyclobutyl-[1,4]diazepan-1-yl)-[5-(pyridin-2-ylsulfanyl)-pyridin-3-yl]-methanone], the affinity in assay [1], expressed as Ki, was 6.6 nM.
With `O=C(c1cncc(Sc2ncccn2)c1)N1CCCN(C2CCC2)CC1` [Example 11, (4-Cyclobutyl-[1,4]diazepan-1-yl)-[5-(pyrimidin-2-ylsulfanyl)-pyridin-3-yl]-methanone], the affinity in assay [1] corresponds to a Ki of 18 nM.
In the case of `O=C(c1cncc(Sc2ccncc2)c1)N1CCCN(C2CCC2)CC1` [Example 12, (4-Cyclobutyl-[1,4]diazepan-1-yl)-[5-(pyridin-4-ylsulfanyl)-pyridin-3-yl]-methanone], the Ki in assay [1] was 1.8 nM.
Take `O=C(c1cc(Oc2ccccc2)ccn1)N1CCCN(C2CCC2)CC1` [Example 13, (4-Cyclobutyl-[1,4]diazepan-1-yl)-(4-phenoxy-pyridin-2-yl)-methanone]: in assay [1], the affinity corresponds to a Ki of 11 nM.
`O=C(c1cc(Oc2ccc(F)cc2)ccn1)N1CCCN(C2CCC2)CC1` [Example 14, (4-Cyclobutyl-[1,4]diazepan-1-yl)-[4-(4-fluoro-phenoxy)-pyridin-2-yl]-methanone] registered an inhibition constant Ki in assay [1] of 17 nM.
In assay [1], `O=C(c1cc(Sc2ccc(F)cc2)ccn1)N1CCCN(C2CCC2)CC1` [Example 15, (4-Cyclobutyl-[1,4]diazepan-1-yl)-[4-(4-fluoro-phenylsulfanyl)-pyridin-2-yl]-methanone] yielded an inhibition constant Ki of 12 nM.
